In the assay the target is T1, catL (cathepsin L; rh catL) (Homo sapiens, UniProt P07711).
T1 construct: gene CTSL; incubated on ice 15 min in assay buffer pH 6.0 before use
The experiment in a line: fluorogenic protease activity assay. The class given is biochemical.

pIC50: −log10 of the molar value.

The term pIC50 denotes the negative decadic logarithm of the IC50, by convention in mol/L.

T1 sequence (P07711 114-288): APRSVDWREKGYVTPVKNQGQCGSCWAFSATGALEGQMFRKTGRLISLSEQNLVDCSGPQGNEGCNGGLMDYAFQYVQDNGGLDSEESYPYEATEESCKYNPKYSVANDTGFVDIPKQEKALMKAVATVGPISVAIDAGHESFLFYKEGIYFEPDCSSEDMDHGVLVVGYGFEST
T1 sequence (P07711 292-333): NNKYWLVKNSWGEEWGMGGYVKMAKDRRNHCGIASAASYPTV

Consider `CO[C@H]1/C=C/O[C@@]2(C)Oc3c(C)c(O)c4c(O)c(c(/C=N/N5CCN(C6CCCC6)CC5)c(O)c4c3C2=O)NC(=O)/C(C)=C\C=C\[C@H](C)[C@H](O)[C@@H](C)[C@@H](O)[C@@H](C)[C@H](OC(C)=O)[C@@H]1C` [Rifapentine], for which the pIC50 was ~4.52.
Turning to `C[C@@H]1[C@H](O)[C@@H](C)/C=C/C=C/CC/C=C/C=C/C=C/C=C/[C@H](O[C@@H]2O[C@H](C)[C@@H](O)[C@H](N)[C@@H]2O)C[C@@H]2O[C@](O)(C[C@@H](O)[C@H](O)CC[C@@H](O)C[C@@H](O)C[C@@H](O)CC(=O)O[C@H]1C)C[C@H](O)[C@H]2C(=O)O` [Nystatin], the pIC50 was ~5.70.

These data come from PMC9231362 (Viruses, 2022).
